US20230293491A1, “COMPOSITIONS AND METHODS FOR DIAGNOSIS AND TREATMENT OF CONDITIONS RELATED TO THE QUALITY OF AGING AND LONGEVITY” (EPITRACKER, INC., priority 2020, published 2023)

Molecular target: T1, α-2 adrenoreceptor (Homo sapiens, UniProt P08913)
T1 construct: purchased Eurofins/DiscoverX SafetyScan47 panel
T1 sequence (P08913 1-465): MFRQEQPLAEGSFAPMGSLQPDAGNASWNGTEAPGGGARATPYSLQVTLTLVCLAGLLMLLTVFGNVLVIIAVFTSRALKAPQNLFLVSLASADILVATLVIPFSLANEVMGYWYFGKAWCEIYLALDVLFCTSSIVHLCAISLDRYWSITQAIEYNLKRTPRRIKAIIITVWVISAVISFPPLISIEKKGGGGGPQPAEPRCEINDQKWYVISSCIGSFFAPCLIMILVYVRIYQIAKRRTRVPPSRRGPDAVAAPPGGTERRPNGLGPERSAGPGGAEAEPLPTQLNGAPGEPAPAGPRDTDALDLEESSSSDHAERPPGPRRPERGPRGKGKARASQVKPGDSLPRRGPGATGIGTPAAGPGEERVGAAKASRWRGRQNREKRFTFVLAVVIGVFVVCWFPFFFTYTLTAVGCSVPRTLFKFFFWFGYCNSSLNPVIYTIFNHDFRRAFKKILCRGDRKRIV
Experiment: Eurofins/DiscoverX SafetyScan47 panel, α-2 adrenoreceptor agonist activity
Type: cell-based
Settings: compared to UK 14304 control; between 3 nM and 6.7 µM
From the text: Given the associations between increased histidine betaine and improved health in the dolphin model, it was hypothesized that histidine betaine has direct therapeutic activities. To test this hypothesis, the Eurofins/DiscoverX SafetyScan47 panel was used to test histidine betaine at 10 concentrations for agonist and antagonist activities across 76 assays and 47 genes and targets that are relevant to compound safety and mechanisms of action, including G-protein coupled receptors, kinases, transporters, ion channels, nuclear receptors, and non-kinase enzymes. Detailed methods used for these assays and assay readouts are available from Eurofins/DiscoverX.
Of 47 pharmacological targets tested for activity with histidine betaine, the following had partial activities, achieving at least 15% that of internal positive controls between 3 nM and 6.7 µM: α-2 adrenoreceptor agonist (maximum activity = 27% compared to UK 14304 control), and cyclooxygenase-1 (COX1) inhibitor (maximum activity = 23% compared to indomethacin control) (FIG. 4).

C[N+](C)(C)C(Cc1cnc[nH]1)C(=O)[O-] (stereo not shown) [histidine betaine]
maximum activity, α-2 adrenoreceptor agonist: 27%
